Legend:
mouse osteoclast = conditions: mouse osteoclasts in vitro; cited from earlier work
human osteoclast = conditions: human osteoclasts in vitro; cited from earlier work
GPR18 = conditions: cited from earlier work
untransfected U2OS cells = assay: ERK1/2 phosphorylation in untransfected U2OS cells; format: cell-based

Molecule | effect on osteoclast polarization and resorption produced by GPR55 agonists O-1602 and LPI (mouse osteoclast) | effect on osteoclast polarization and resorption produced by GPR55 agonists O-1602 and LPI (human osteoclast) | activity at GPR18 (GPR18) | Induction of ERK1/2 phosphorylation in untransfected U2OS cells (untransfected U2OS cells)
C=C(C)[C@@H]1CCC(C)=C[C@H]1c1c(O)cc(CCCCC)cc1O [CBD, cannabidiol] | attenuating the effects | attenuating the effects | low efficacy agonist | 
L-α-lysophosphatidylinositol [LPI] |  |  |  | neither LPI nor any of the antagonist compounds induced ERK1/2 phosphorylation

Source: publication PMC3970910 (Biochemistry, 2013)
